Results taken from PubChem BioAssay AID434987 (Southern Research Specialized Biocontainment Screening …, 2010).
Active and inactive are the calls of the source. The rule behind the calls is not given here.

Test system: M. tuberculosis H37Rv growth inhibition with meropenem
Assay: dose response, H37Rv, with and without meropenem (AID 434987);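 note: growth over 7 days at 37 °C before Alamar Blue read on day 9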
[1] = M. tuberculosis H37Rv growth inhibition, measured here: IC50 without meropenem
[2] = M. tuberculosis H37Rv growth inhibition, measured here: IC90 without meropenem
[3] = measured here: IC90 with meropenem

Row | SMILES | IC50 | IC50 [1] [µM] | IC90 [2] [µM] | IC90 [3] [µM]
1 | CCc1nnc(NC(=O)c2ccc3nc(CC)c(CC)nc3c2)s1 | 46.6 µM (inactive) | > 100 | > 100 | > 100
2 | CCOC(=O)[C@H]1[C@H]2COc3ccc(Br)cc3[C@@H]2N2C(=O)c3cc(OC)c(OC)cc3NC(=O)[C@@]12C | > 50 µM (inactive) | 80.9 | > 100 | > 50
3 | N/C(=N\c1nc2ccccc2o1)NC(=O)c1ccccc1Br | < 0.2 µM | 28.4 | > 100 | > 100
4 | Cc1ccsc1/C=N/Nc1ncc(Cl)cc1Cl | 8.81 µM | 50.9 | > 100 | > 100
5 | COc1ccc2c(c1)c(CC(=O)Nc1ccc(C)cc1)c(C)n2C(=O)c1ccc(Cl)cc1 | > 100 µM (inactive) | > 100 | > 100 | > 100
6 | c1ccc(-n2c3ccccc3c3ccccc32)cc1 | 3.27 µM | > 100 | > 100 | 22.7
7 | O=C(NCC1COc2ccccc2O1)C1CCC(CNc2c(N3CCCCC3)c(=O)c2=O)CC1 (centres undefined) | 24 µM (inactive) | 45.9 | 51.7 | 26.7
8 | Cc1cc(C)c(C)c(S(=O)(=O)N2C(=S)NC(=O)C2CC(C)C)c1C (centres undefined) | > 100 µM (inactive) | > 100 | > 100 | > 100
9 | COc1ccc(Cl)cc1NC(=O)NNC(=O)c1ccccn1 | 41.1 µM (inactive) | > 100 | > 100 | > 100
10 | Nc1c(Cl)cc(-c2csc(N3CCCC3c3nc4cc(Cl)c(N5CCCCC5)cc4n3CCCO)n2)cc1Cl (centres undefined) | 97.3 µM (inactive) | > 100 | > 100 | > 100
11 | CO/N=C(\C(=O)N[C@@H]1C(=O)N2C(C(=O)O)=C(COC(C)=O)CS[C@H]12)c1csc(N)n1 (stereo in doubt) | 10.3 µM | > 100 | > 100 | 41.7
12 | COc1ccccc1-c1cc(C(=O)Nc2c(C)n(C)n(-c3ccccc3)c2=O)no1 | 6.68 µM | 39.2 | 88.1 | 19.5
13 | NCCS | > 100 µM (inactive) | > 100 | > 100 | > 100
14 | CCCC(C(=O)N1CCOCC1)N1C(=O)C2C3C=CC(C3)C2C1=O (centres undefined) | > 100 µM (inactive) | > 100 | > 100 | > 100
15 | Cc1c(OCc2ccc(C(=O)O)cc2)ccc2c(-c3ccccc3)cc(=O)oc12 | 1.42 µM | 46.2 | 96.7 | 2.09
16 | CSCC(=O)Nc1ccc(F)c(Cl)c1 | 10.1 µM (inactive) | 21.9 | > 100 | > 100
17 | Cc1ccc(O)c(-c2cc(-c3ccccc3F)[nH]n2)c1 | > 100 µM (inactive) | > 100 | > 100 | > 100
18 | O=C(O/N=C\c1ccc(N2CCCCC2)c([N+](=O)[O-])c1)c1c(F)cccc1F | > 100 µM (inactive) | > 100 | > 100 | > 100
19 | O=C(Cc1ccccc1Cl)Nc1nc2ccccc2[nH]1 | 9.31 µM | > 100 | > 100 | > 25
20 | C/C(=N\NC(=S)NCc1ccccc1)c1cccc(Br)c1 | > 100 µM (inactive) | > 100 | > 100 | > 100
21 | COc1ccccc1NS(=O)(=O)c1cccc(N2CC(O)=C(c3ccccc3)C2=N)c1 | 8.71 µM (inactive) | 21.1 | > 100 | 16

Row | SMILES | IC50 | IC50 [1] [µM] | IC90 [2] [µM] | IC90 [3] [µM]
22 | COc1ccc(/C=N\NC(=O)c2sc(N)nc2C)cc1OC | > 100 µM (inactive) | > 100 | > 100 | > 100
23 | Cc1nc(SCC(=O)NCc2ccco2)c2c3c(sc2n1)CCCC3 | > 100 µM (inactive) | > 100 | > 100 | > 100
24 | O=C(Nc1ccc(N2CCCCC2)cc1)c1cc([N+](=O)[O-])cc([N+](=O)[O-])c1 | 43.9 µM (inactive) | > 100 | > 100 | > 100
25 | COc1ccccc1N1CCN(CC(=O)Nc2cc(F)ccc2C)CC1 | 47 µM (inactive) | 58.6 | > 100 | 91
26 | COc1ccc2cc(C3=CCCCC3)ncc2c1 | 74.8 µM (inactive) | > 100 | > 100 | > 100
27 | COc1ccc(-c2csc(-c3cccs3)n2)c(OC)c1 | 67.6 µM (inactive) | 68.2 | > 100 | > 100
28 | c1ccc2c(c1)Cn1nc(Cc3nc4c(s3)CCCC4)nc1-2 | 47.5 µM (inactive) | 79.1 | > 100 | 53
29 | CCCCNC(=O)c1onc(CSc2ccc(OC)cc2)c1C(=O)O | 23.9 µM (inactive) | 46.4 | 53.1 | 27.2
30 | Cc1ccc2occ(/C=C/C(=O)c3ccccc3O)c(=O)c2c1 | 50.2 µM (inactive) | > 100 | > 100 | > 100
31 | CC(/C=N/NC(=O)c1cc(-c2cccs2)[nH]n1)=C\c1ccccc1 | > 100 µM (inactive) | > 100 | > 100 | > 100
32 | CN(C)S(=O)(=O)c1ccc(C(=O)OCC2CC2(Cl)Cl)cc1 (centres undefined) | > 100 µM (inactive) | > 100 | > 100 | > 100
33 | CC[C@@](C)(NS(=O)(=O)OCC(Cl)(Cl)Cl)c1ccccc1 | 50.1 µM (inactive) | 95 | > 100 | 54.8
34 | CCC(=O)NC(=S)Nc1ccc(NC(=O)c2cccc([N+](=O)[O-])c2C)cc1 | > 100 µM (inactive) | > 100 | > 100 | > 100
35 | CCOc1ccc2nc(SC3CC(=O)N(c4cccc(OC)c4)C3=O)sc2c1 (centres undefined) | 23.5 µM (inactive) | 44.2 | 49.9 | 25.7
36 | CCOc1ccccc1C(=O)Nc1cccc(-c2ccc3nncn3n2)c1 | 65.3 µM (inactive) | > 100 | > 100 | > 100
37 | Cc1cc(C)cc(OCC(=O)NNC(=O)c2ccccn2)c1 | 1.66 µM | 10.9 | 22.3 | 16
38 | Cc1ccc(N=Cc2c(O)ccc3ccccc23)cc1F | > 100 µM (inactive) | > 100 | > 100 | > 100
39 | CCCc1cc(C(=O)OCC(=O)N2CCN(c3ccc(OC)cc3)CC2)sc1C | > 100 µM (inactive) | > 100 | > 100 | > 100
40 | Cc1cc(C)c(N=Cc2c(O)n(-c3nccs3)c(=O)c3ccccc23)c(C)c1 | > 100 µM (inactive) | > 100 | > 100 | > 100
41 | Cc1ccc(Cn2c(C(CO)Nc3nc(-c4ccc(Cl)c([N+](=O)[O-])c4)cs3)nc3ccccc32)cc1 (centres undefined) | > 100 µM (inactive) | > 100 | > 100 | > 100
